From PubChem BioAssay AID330 (DTP/NCI, 2004) come the findings set out here.

The structures appear in SMILES notation. Where “and” joins values, the source holds several entries; their conditions need not be identical. Equal entries are not always repeated. Inconclusive results and toxic doses are left out.

In this test the test system is P388 leukemia ip, CD2F1 mice, survival T/C. Briefly: NCI In Vivo Anticancer Drug Screen. Data for tumor model P388 Leukemia (intraperitoneal) in CD2F1 (CDF1) mice. The note with it: endpoint: median survival time, higher = longer survival. A digest of the protocol:
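Mice carrying the transplanted tumor received test compound or vehicle. Survival was recorded in each group, and the value is the treated-group measurement divided by that of the vehicle-treated control group.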

Where [1] appears, read: dose: 50.0 mg/kg/injection, schedule: Q01DX005 (ip), vehicle: Klucel (hydroxypropylcellulose) (HPC).
Setting [2] is: dose: 100.0 mg/kg/injection, schedule: Q01DX005 (ip), vehicle: Klucel (hydroxypropylcellulose) (HPC).
Where [3] appears, read: dose: 200.0 mg/kg/injection, schedule: Q01DX005 (ip), vehicle: Klucel (hydroxypropylcellulose) (HPC).
Setting [4] is: dose: 12.5 mg/kg/injection, schedule: Q01DX005 (ip), vehicle: Klucel (hydroxypropylcellulose) (HPC).
[5] abbreviates: dose: 25.0 mg/kg/injection, schedule: Q01DX005 (ip), vehicle: Klucel (hydroxypropylcellulose) (HPC).
[6] abbreviates: dose: 100.0 mg/kg/injection, schedule: Q01DX001 (ip), vehicle: saline with Tween-80.
Setting [7] is: dose: 200.0 mg/kg/injection, schedule: Q01DX001 (ip), vehicle: saline with Tween-80.
[8] abbreviates: dose: 400.0 mg/kg/injection, schedule: Q01DX001 (ip), vehicle: saline with Tween-80.
The mark [9] stands for this setting: dose: 50.0 mg/kg/injection, schedule: Q01DX009 (ip), vehicle: saline with Tween-80.
Where [10] appears, read: dose: 100.0 mg/kg/injection, schedule: Q01DX009 (ip), vehicle: saline with Tween-80.
[11] abbreviates: dose: 200.0 mg/kg/injection, schedule: Q01DX009 (ip), vehicle: saline with Tween-80.
[12] abbreviates: dose: 50.0 mg/kg/injection, schedule: Q01DX005 (ip), vehicle: saline with Tween-80.
Setting [13] is: dose: 100.0 mg/kg/injection, schedule: Q01DX005 (ip), vehicle: saline with Tween-80.
Where [14] appears, read: dose: 200.0 mg/kg/injection, schedule: Q01DX005 (ip), vehicle: saline with Tween-80.
Where [15] appears, read: dose: 60.0 mg/kg/injection, schedule: Q01DX005 (ip), vehicle: Klucel (hydroxypropylcellulose) (HPC).
The mark [16] stands for this setting: dose: 120.0 mg/kg/injection, schedule: Q01DX005 (ip), vehicle: Klucel (hydroxypropylcellulose) (HPC).
Where [17] appears, read: dose: 240.0 mg/kg/injection, schedule: Q01DX005 (ip), vehicle: Klucel (hydroxypropylcellulose) (HPC).
Where [18] appears, read: dose: 100.0 mg/kg/injection, schedule: Q04DX003 (ip), vehicle: saline with Tween-80.
[19] abbreviates: dose: 200.0 mg/kg/injection, schedule: Q04DX003 (ip), vehicle: saline with Tween-80.
[20] abbreviates: dose: 25.0 mg/kg/injection, schedule: Q01DX009 (ip), vehicle: saline with Tween-80.

Turning to `Nc1nc2nc(N=Nc3ccc(S(=O)(=O)O)cc3)[nH]c2c(=O)[nH]1`, the T/C is, setting by setting: under setting [1], 104 % of control; under setting [2], 104 % of control; under setting [3], 104 % of control.

For the molecule `CCc1cc(-c2cc(CC)on2)no1`, the T/C by setting is: (dose: 60.0 mg/kg/injection, schedule: Q01DX005 (ip), vehicle: saline) 103 % of control; (dose: 120.0 mg/kg/injection, schedule: Q01DX005 (ip), vehicle: saline) 100 % of control; (dose: 240.0 mg/kg/injection, schedule: Q01DX005 (ip), vehicle: saline) 91 % of control.

Take `Nc1cnnc2nc[nH]c12`: the T/C is 100 % of control under setting [4]; 101 % of control under setting [5]; 100 % of control and 111 % of control under setting [1]; 117 % of control under setting [2].

In the case of `COc1ccc(/C=C/C(CCN(C)C)=N/NC(=S)Nc2ccc(Cl)cc2)cc1`, the T/C is 89 % of control under setting [6], 90 % of control under setting [7] and 90 % of control under setting [8].

As for `CC1CCN(C(=O)c2nc3ccccc3[nH]2)CC1`, the T/C runs as follows: under setting [1], 102 % of control; under setting [2], 103 % of control; under setting [3], 107 % of control.

For the molecule `CN1C(=O)C(O)(CC(=O)c2ccccc2)c2ccccc21` (stereo unspecified), the T/C under setting [9] is 93 % of control, the T/C under setting [10] is 93 % of control and the T/C under setting [11] was 90 % of control.

`O=C1OC2C(I)C3CC2C1C3c1ccccc1` (stereo unspecified): the T/C was 105 % of control under setting [12], 103 % of control under setting [13] and 105 % of control under setting [14].

`CC1CS(=O)(=O)O1` (stereo unspecified): the T/C under setting [15] was 104 % of control, the T/C under setting [16] is 103 % of control and the T/C under setting [17] was 110 % of control.

Turning to `CC(=O)CC(=O)c1ccc(Br)cc1.CC(=O)CC(=O)c1ccc(Br)cc1.[Ni]`, the T/C under setting [6] was 90 % of control, the T/C under setting [7] was 87 % of control and the T/C under setting [8] is 90 % of control.

For the molecule `C=CC1CN2CCC1CC2C(O)c1ccnc2ccc(OC)cc12` (stereo unspecified) (tested in a mixture with another compound), the T/C was 109 % of control under setting [9] and 109 % of control under setting [10].

With `O=C(c1cccs1)C1Cc2ccccc2C1=O` (stereo unspecified), the T/C under setting [18] was 95 % of control; the T/C under setting [19] was 90 % of control; the T/C (dose: 400.0 mg/kg/injection, schedule: Q04DX003 (ip), vehicle: saline with Tween-80) is 90 % of control.

In the case of `CCOC(=O)/N=[N+](\[O-])c1ccc(Br)cc1`, the T/C (dose: 12.5 mg/kg/injection, schedule: Q01DX001 (ip), vehicle: Klucel (hydroxypropylcellulose) (HPC)) was 109 % of control; the T/C (dose: 25.0 mg/kg/injection, schedule: Q01DX001 (ip), vehicle: Klucel (hydroxypropylcellulose) (HPC)) is 115 % of control; the T/C (dose: 50.0 mg/kg/injection, schedule: Q01DX001 (ip), vehicle: Klucel (hydroxypropylcellulose) (HPC)) is 103 % of control.

With `COc1ccc2c(NCCCCCCCCNc3c4ccccc4nc4cc(OC)ccc34)c3ccccc3nc2c1`, the T/C by setting is: (dose: 0.62 mg/kg/injection, schedule: Q01DX009 (ip), vehicle: other) 176 % of control; (dose: 3.75 mg/kg/injection, schedule: Q01DX009 (ip), vehicle: other) 157 % of control; (dose: 7.5 mg/kg/injection, schedule: Q01DX009 (ip), vehicle: other) 100 % of control.

Consider `CC(=O)Nc1c2ccccc2nc2ccccc12`, for which the T/C under setting [12] was 95 % of control, the T/C under setting [13] was 91 % of control and the T/C under setting [14] was 94 % of control.

For the molecule `CC(C)CCc1cc(O)ccc1O`, the T/C under setting [20] was 114 % of control, the T/C under setting [9] was 101 % of control, the T/C under setting [10] is 98 % of control and the T/C under setting [11] was 97 % of control.

For `COc1cc(-c2oc3ccccc3c(=O)c2O)cc(OC)c1OC`, the T/C by setting is: under setting [9], 93 % of control; under setting [10], 91 % of control; under setting [11], 93 % of control.

For the molecule `O=c1c2sc3ccccc3c2ncn1/N=C/c1cccc([N+](=O)[O-])c1`, the T/C runs as follows: under setting [1], 99 % of control; under setting [2], 92 % of control; under setting [3], 91 % of control.

For the molecule `Cc1cc2c(c3c1C(=O)CC3)C(C)(C)CCC2(C)C`, the T/C is 99 % of control under setting [12], 97 % of control under setting [13] and 95 % of control under setting [14].

As to `O=[N+]([O-])c1cccnc1C1OCCO1`, the T/C runs as follows: (dose: 50.0 mg/kg/injection, schedule: Q01DX009 (ip), vehicle: saline + Tween-80 + alcohol) 102 % of control; (dose: 100.0 mg/kg/injection, schedule: Q01DX009 (ip), vehicle: saline + Tween-80 + alcohol) 99 % of control.

As to `CC1N[P+]2(Nc3ccccc3O2)OC1=O` (stereo unspecified), the T/C (dose: 100.0 mg/kg/injection, schedule: Q01DX001 (ip), vehicle: Klucel (hydroxypropylcellulose) (HPC)) is 103 % of control; the T/C (dose: 200.0 mg/kg/injection, schedule: Q01DX001 (ip), vehicle: Klucel (hydroxypropylcellulose) (HPC)) is 103 % of control; the T/C (dose: 400.0 mg/kg/injection, schedule: Q01DX001 (ip), vehicle: Klucel (hydroxypropylcellulose) (HPC)) was 106 % of control.

With `NC(C=O)C(O)C(O)C(O)CO` (stereo unspecified), the T/C is, setting by setting: under setting [10], 109 % of control; (dose: 100.0 mg/kg/injection, schedule: Q04DX003 (ip), vehicle: saline sonified) 100 % of control; under setting [11], 95 % of control; (dose: 200.0 mg/kg/injection, schedule: Q04DX003 (ip), vehicle: saline sonified) 100 % of control; (dose: 400.0 mg/kg/injection, schedule: Q01DX009 (ip), vehicle: saline with Tween-80) 95 % of control; (dose: 400.0 mg/kg/injection, schedule: Q04DX003 (ip), vehicle: saline sonified) 90 % of control.

Regarding `CCCCCC1(c2ccccc2)CCCC(C#N)C1=O` (stereo unspecified), the T/C under setting [18] was 101 % of control and the T/C under setting [19] was 88 % of control.

Turning to `CCCCCCCCCCCCCCCC(=O)Nc1ccn(C2OC(CO)C(O)C2O)c(=O)n1` (stereo unspecified), the T/C was 172 % of control (dose: 3.12 mg/kg/injection, schedule: Q01DX009 (ip), vehicle: suspension in saline); 188 % of control (dose: 6.25 mg/kg/injection, schedule: Q01DX009 (ip), vehicle: suspension in saline); 191 % of control and 235 % of control (dose: 12.5 mg/kg/injection, schedule: Q01DX009 (ip), vehicle: suspension in saline); 260 % of control and 283 % of control (dose: 25.0 mg/kg/injection, schedule: Q01DX009 (ip), vehicle: suspension in saline).

With `Cn1nc(CC#N)c2c(=N)n(N)cnc21`, the T/C reads like this: (dose: 25.0 mg/kg/injection, schedule: Q01DX009 (ip), vehicle: Klucel (hydroxypropylcellulose) (HPC)) 119 % of control; (dose: 50.0 mg/kg/injection, schedule: Q01DX009 (ip), vehicle: Klucel (hydroxypropylcellulose) (HPC)) 109 % of control; (dose: 100.0 mg/kg/injection, schedule: Q01DX009 (ip), vehicle: Klucel (hydroxypropylcellulose) (HPC)) 104 % of control; (dose: 200.0 mg/kg/injection, schedule: Q01DX009 (ip), vehicle: Klucel (hydroxypropylcellulose) (HPC)) 113 % of control.

As for `Cc1cccc([B-]23OCC[N+]2(CNC(=O)c2ccccc2O)CCO3)c1` (stereo unspecified), the T/C under setting [1] was 105 % of control, the T/C under setting [2] was 104 % of control and the T/C under setting [3] was 104 % of control.

Take `O=C1CSC(c2cccc(Cl)c2)N1N1C(=O)CSC1c1cccc(Cl)c1` (stereo unspecified): the T/C runs as follows: under setting [15], 102 % of control; under setting [16], 97 % of control; under setting [17], 94 % of control.

For the molecule `Cc1cc(N(CCOS(C)(=O)=O)CCOS(C)(=O)=O)ccc1C=Nc1ccc(-c2csc(-c3ccc(Br)cc3)n2)cc1`, the T/C was 180 % of control under setting [20]; 209 % of control under setting [9]; 98 % of control and 90 % of control under setting [10].

Regarding `CN(C)CCC(=O)Nc1nc(-c2ccc(Cl)cc2)cs1`, the T/C under setting [12] is 102 % of control, the T/C under setting [13] is 92 % of control and the T/C under setting [14] is 96 % of control.

`Cc1cc2nc3c(C4OCC(O)C4O)nn(-c4ccc(F)cc4)c3nc2cc1C` (stereo unspecified): the T/C runs as follows: under setting [4], 95 % of control; under setting [5], 90 % of control; under setting [1], 88 % of control.
